Measured values published in patent US10828316B2, “Method of treating bacterial infections” (priority 2016, dated 2020).
≈ marks a conversion by molar mass, not a printed value. Read-outs that look alike come from different tables or passages of the source.

Columns and labels:
[1] = tested on: E. coli EN0138; assay: MIC; type: cell-based; conditions: in AZT+trimethoprim+uridine combination
[2] = tested on: E. coli EN002; assay: MIC; type: cell-based, Escherichia coli; conditions: Combination 1 (AZT+trimethoprim+uridine)
[3] = tested on: E. coli EN0135; assay: MIC; type: cell-based; conditions: in AZT+trimethoprim+uridine combination
[4] = tested on: P. aeruginosa EN015; assay: MIC; type: cell-based, Pseudomonas aeruginosa; conditions: Pseudomonas aeruginosa, EN015, P. aeruginosa EN015
[5] = tested on: S. sonnei APV00908; assay: MIC; type: cell-based; conditions: S. sonnei APV00908
[6] = tested on: P. aeruginosa EN0004; assay: MIC; type: cell-based
[7] = tested on: K. pneumoniae EN0437; assay: MIC; type: cell-based
[8] = tested on: K. oxytoca EN0392; assay: MIC; type: cell-based, Klebsiella oxytoca; conditions: in FdUrd+trimethoprim+uridine combination
[9] = tested on: Helicobacter pylori APV00918; assay: MIC; type: cell-based; conditions: in FdUrd+trimethoprim+uridine combination
From the text: (§1) Inhibition of Heliobacter is important in view of increasing resistance and its association to gastric cancer.

[10] = tested on: Helicobacter pylori ATTC43504; assay: MIC; type: cell-based; conditions: in AZT+trimethoprim+uridine combination
From the text: as §1

[11] = tested on: E. coli EN001; assay: MIC; type: cell-based, Escherichia coli
[12] = tested on: S. typhimurium EN0466; assay: MIC; type: cell-based, Salmonella typhimurium; conditions: in FdUrd+trimethoprim+uridine combination
[13] = tested on: A. baumannii EN0007; assay: MIC; type: cell-based, A. baumanii
[14] = tested on: E. coli EN013; assay: MIC; type: cell-based, Escherichia coli; conditions: Escherichia coli, EN013, E. coli EN013
[15] = tested on: E. coli EN0001; assay: MIC; type: cell-based; conditions: in AZT+trimethoprim+uridine combination
[16] = tested on: S. flexneri APV00907; assay: MIC; type: cell-based; conditions: S. flexneri APV00907
[17] = tested on: K. pneumoniae EN0143; assay: MIC; type: cell-based
[18] = in vivo; cited from earlier work
[19] = tested on: E. coli EN0136; assay: MIC; type: cell-based; conditions: in AZT+trimethoprim+uridine combination
[20] = tested on: K. pneumoniae EN0142; assay: MIC; type: cell-based; conditions: in AZT+trimethoprim+uridine combination
[21] = tested on: S. flexneri APV00906; assay: MIC; type: cell-based; conditions: S. flexneri APV00906; in FdUrd+trimethoprim+uridine combination
[22] = tested on: K. pneumoniae EN0436; assay: MIC; type: cell-based; conditions: in AZT+trimethoprim+uridine combination
[23] = tested on: K. pneumoniae EN0401; assay: MIC; type: cell-based
[24] = tested on: K. pneumoniae EN011; assay: MIC; type: cell-based, Klebsiella pneumoniae; conditions: Klebsiella pneumoniae, EN011, K. pneumoniae EN011
[25] = tested on: E. coli strain no 5; assay: MIC; type: cell-based; conditions: Escherichia coli, NO5, read-out: MIC of AZT
[26] = tested on: S. aureus strain no 13; assay: MIC; conditions: Staphylococcus aureus, NO13, read-out: MIC of AZT
[27] = tested on: E. coli ATCC 25922; assay: MIC, in vitro sensitivity of the strain used in vivo; conditions: Escherichia coli, ATCC25922, read-out: MIC against E. coli ATCC 25922
[28] = tested on: E. coli
[29] = tested on: E. coli strain no 2; assay: MIC; conditions: Escherichia coli
[30] = tested on: A. baumannii strain no 3; assay: MIC; type: cell-based, Acinetobacter baumannii; conditions: for MIC of AZT: A. baumannii strain no 3
[31] = tested on: P. aeruginosa strain no 10; assay: MIC; type: cell-based, Pseudomonas aeruginosa; conditions: for MIC of AZT: P. aeruginosa strain no 10
[32] = Combination 1 (AZT+trimethoprim+uridine)
[33] = Combination 2 (same mixed with thymidine)
[34] = in AZT+trimethoprim+uridine combination
[35] = in FdUrd+trimethoprim+uridine combination
[36] = in didanosine+trimethoprim+uridine combination

## O=c1ccn([C@@H]2O[C@H](CO)[C@@H](O)[C@H]2O)c(=O)[nH]1 [Uridine, uridine]
[1]
  MIC: 1.6 µg/mL
[2]
  MIC: 1.6 µg/mL
[3]
  MIC: 13 µg/mL
[4]; [32]
  MIC: 200 µg/mL
[4]; [33]
  MIC: 200 µg/mL
[4]; [34]
  MIC: 500 µg/mL
[5]; [34]
  MIC: 3 µg/mL
[5]; [35]
  MIC: >400 µg/mL
[6]; [34]
  MIC: >400 µg/mL
[6]; [35]
  MIC: >400 µg/mL
[6]; [36]
  MIC: >400 µg/mL
[7]; [35]
  MIC: >400 µg/mL
[7]; [36]
  MIC: >400 µg/mL
[8]
  MIC: 13 µg/mL
[9]
  MIC: 6 µg/mL
[10]
  MIC: 13 µg/mL
[11]; [35]
  MIC: 13 µg/mL
[11]; [36]
  MIC: 13 µg/mL
[12]
  MIC: 13 µg/mL
[13]; [34]
  MIC: >400 µg/mL
[13]; [35]
  MIC: >400 µg/mL
[13]; [36]
  MIC: >400 µg/mL
[14]; [32]
  MIC: < 0.8 µg/mL
[14]; [33]
  MIC: < 0.8 µg/mL
[14]; [34]
  MIC: < 2 µg/mL
[14]; [35]
  MIC: 1.6 µg/mL
[14]; [36]
  MIC: 1.6 µg/mL
[15]
  MIC: 13 µg/mL
[16]; [34]
  MIC: 200 µg/mL
[16]; [35]
  MIC: >400 µg/mL
[17]; [35]
  MIC: >400 µg/mL
[17]; [36]
  MIC: >400 µg/mL
[18]
  oral bioavailability: 7-8%
[19]
  MIC: 13 µg/mL
[20]
  MIC: 13 µg/mL
[21]
  MIC: >400 µg/mL
[22]
  MIC: 13 µg/mL
[23]; [35]
  MIC: >400 µg/mL
[23]; [36]
  MIC: >400 µg/mL
[24]; [32]
  MIC: 3.2 µg/mL
[24]; [34]
  MIC: 30 µg/mL
[24]; [35]
  MIC: 6 µg/mL
[24]; [36]
  MIC: 13 µg/mL

## Cc1cn([C@H]2C[C@H](N=[N+]=[N-])[C@@H](CO)O2)c(=O)[nH]c1=O [AZT, 3′-azido-3′-deoxythymidine]
[25]
  MIC: 4 to 8 µg/mL
[26]
  MIC: > 150 µg/mL
[27]
  MIC: > 2 µg/mL
[6]; [34]
  MIC: >4 µg/mL
[13]; [34]
  MIC: >4 µg/mL
[14]; [32]
  MIC: < 0.008 µg/mL
[14]; [33]
  MIC: < 0.008 µg/mL
[14]; [34]
  MIC: < 0.008 µg/mL
[28]; AZT 30 mg/kg
  log diff peritoneum vs start of treatment: 0.38
  mean log peritoneum: 5.68
[28]; AZT 30 mg/kg, single mice
  score at sampling: 1
[28]; murine peritonitis model
  inhibition in mice infected with E. coli: slight inhibition
[24]; [32]
  MIC: 0.032 µg/mL
[29]; NO2, E. coli strain 2, 5 uM thymidine, uridine 0 μg/ml
  MIC: > 30 µg/mL
[29]; NO2, E. coli strain 2, 5 uM thymidine, uridine 10 μg/ml
  MIC: 25 to 30 µg/mL (≈ 93.5 to 112 µM)
[29]; NO2, E. coli strain 2, 5 uM thymidine, uridine 100 μg/ml
  MIC: 10 to 20 µg/mL (≈ 37.4 to 74.8 µM)
[29]; NO2, read-out: MIC AZT, E. coli strain 2, thymidine 0 μM, uridine 0
  MIC: 20 to 30 µg/mL (≈ 74.8 to 112 µM)
[29]; NO2, read-out: MIC AZT, E. coli strain 2, thymidine 0 μM, uridine 100 μg/ml
  MIC: 5 to 10 µg/mL (≈ 18.7 to 37.4 µM)
[29]; NO2, read-out: MIC AZT, E. coli strain 2, thymidine 10 μM, uridine 0
  MIC: > 30 µg/mL
[29]; NO2, read-out: MIC AZT, E. coli strain 2, thymidine 10 μM, uridine 100 μg/ml
  MIC: > 30 µg/mL
[29]; NO2, read-out: MIC AZT, E. coli strain 2, thymidine 10 μM, uridine 100 and trimethoprim 1 μg/ml
  MIC: 0.1 to 0.5 µg/mL (≈ 0.374 to 1.87 µM)
[29]; NO2, read-out: MIC AZT, E. coli strain 2, thymidine 30 μM, uridine 0
  MIC: > 30 µg/mL
[29]; NO2, read-out: MIC AZT, E. coli strain 2, thymidine 30 μM, uridine 100 μg/ml
  MIC: > 30 µg/mL
[29]; NO2, read-out: MIC of AZT, E. coli strain no 2, trimethoprim 0.5 μg/ml, uridine 0 μg/ml
  MIC: 0.012 to 0.025 µg/mL
[29]; NO2, read-out: MIC of AZT, E. coli strain no 2, trimethoprim 0.5 μg/ml, uridine 1 μg/ml
  MIC: ≤ 0.006 µg/mL
[29]; NO2, read-out: MIC of AZT, E. coli strain no 2, trimethoprim 0.5 μg/ml, uridine 10 μg/ml
  MIC: 0.05 to 0.1 µg/mL
[29]; NO2, read-out: MIC of AZT, E. coli strain no 2, trimethoprim 0.5 μg/ml, uridine 100 μg/ml
  MIC: 0.025 to 0.05 µg/mL
[29]; NO2, read-out: MIC of AZT, E. coli strain no 2, trimethoprim 0.5 μg/ml, uridine 200 μg/ml
  MIC: 0.012 to 0.025 µg/mL
[29]; NO2, read-out: MIC of AZT, E. coli strain no 2, trimethoprim 1 μg/ml, uridine 0 μg/ml
  MIC: 0.012 to 0.025 µg/mL
[29]; NO2, read-out: MIC of AZT, E. coli strain no 2, trimethoprim 1 μg/ml, uridine 1 μg/ml
  MIC: ≤ 0.006 µg/mL
[29]; NO2, read-out: MIC of AZT, E. coli strain no 2, trimethoprim 1 μg/ml, uridine 10 μg/ml
  MIC: ≤ 0.006 µg/mL
[29]; NO2, read-out: MIC of AZT, E. coli strain no 2, trimethoprim 1 μg/ml, uridine 100 μg/ml
  MIC: 0.025 to 0.05 µg/mL
[29]; NO2, read-out: MIC of AZT, E. coli strain no 2, trimethoprim 1 μg/ml, uridine 200 μg/ml
  MIC: 0.012 to 0.025 µg/mL
[29]; NO2, read-out: MIC of AZT, E. coli strain no 2, trimethoprim 2 μg/ml, uridine 0 μg/ml
  MIC: 0.006 to 0.012 µg/mL
[29]; NO2, read-out: MIC of AZT, E. coli strain no 2, trimethoprim 2 μg/ml, uridine 1 μg/ml
  MIC: ≤ 0.006 µg/mL
[29]; NO2, read-out: MIC of AZT, E. coli strain no 2, trimethoprim 2 μg/ml, uridine 10 μg/ml
  MIC: ≤ 0.006 µg/mL
[29]; NO2, read-out: MIC of AZT, E. coli strain no 2, trimethoprim 2 μg/ml, uridine 100 μg/ml
  MIC: 0.012 to 0.025 µg/mL
[29]; NO2, read-out: MIC of AZT, E. coli strain no 2, trimethoprim 2 μg/ml, uridine 200 μg/ml
  MIC: 0.006 to 0.012 µg/mL
[29]; NO2, read-out: MIC of AZT, E. coli strain no 2, uridine 0 μg/ml
  MIC: 20 to 25 µg/mL
[29]; NO2, read-out: MIC of AZT, E. coli strain no 2, uridine 10 μg/ml
  MIC: 20 to 25 µg/mL
[29]; NO2, read-out: MIC of AZT, E. coli strain no 2, uridine 50 μg/ml
  MIC: 15 to 20 µg/mL
[29]; NO2, read-out: MIC of AZT, E. coli strain no 2, uridine 100 μg/ml
  MIC: 5 to 15 µg/mL
[29]; NO2, read-out: MIC of AZT, E. coli strain no 2, uridine 200 μg/ml
  MIC: 5 to 15 µg/mL
[29]; NO2, read-out: MIC of AZT, Table 3, E. coli strain no 2, trimethoprim 0, uridine 0 μg/ml
  MIC: 20 to 25 µg/mL
[29]; NO2, read-out: MIC of AZT, Table 3, E. coli strain no 2, trimethoprim 0, uridine 1 μg/ml
  MIC: 10 to 20 µg/mL
[29]; NO2, read-out: MIC of AZT, Table 3, E. coli strain no 2, trimethoprim 0, uridine 10 μg/ml
  MIC: 10 to 20 µg/mL
[29]; NO2, read-out: MIC of AZT, Table 3, E. coli strain no 2, trimethoprim 0, uridine 100 μg/ml
  MIC: 2 to 10 µg/mL
[29]; NO2, read-out: MIC of AZT, Table 3, E. coli strain no 2, trimethoprim 0, uridine 200 μg/ml
  MIC: 2 to 10 µg/mL
[30]; uridine 10 μg/ml
  MIC of AZT: >150 µg/mL
[30]; uridine 50 μg/ml
  MIC of AZT: >150 µg/mL
[30]; uridine 100 μg/ml
  MIC of AZT: >150 µg/mL
[30]; uridine 200 μg/ml
  MIC of AZT: >150 µg/mL
[30]; Acinetobacter baumannii, NO3, read-out: MIC of AZT
  MIC: > 150 µg/mL
[31]; uridine 10 μg/ml
  MIC of AZT: >150 µg/mL
[31]; uridine 50 μg/ml
  MIC of AZT: >150 µg/mL
[31]; uridine 100 μg/ml
  MIC of AZT: >150 µg/mL
[31]; uridine 200 μg/ml
  MIC of AZT: >150 µg/mL
[31]; Pseudomonas aeruginosa, NO10, read-out: MIC of AZT
  MIC: > 150 µg/mL
